Patent US10813920B2, “Drug for treating corneal endothelium by promoting cell proliferation or inhibiting cell damage” (THE DOSHISHA, priority 2013, dated 2020)

Tested on: human corneal endothelial cells
Assay: Na+/K+-ATPase and ZO-1 immunostaining (pumping and barrier function markers)
Assay type: cell-based
Details: 1, 3, 10 μM; immunostaining after 20 days
Method: *Human corneal endothelial cells (HCEC, where the cells were obtained and culturing method thereof): HCEC was cultured as follows. In short, Descemet's membrane including corneal endothelial cells was peeled off from a corneal for research purchased from the Seattle Eye Bank, and the corneal endothelial cells were mechanically peeled off with a basal membrane. After collagenase (ROCHE catalog No: 10 103 586 001) was used to detach and collect the corneal endothelial cell from the basal membrane (typically 1 mg/mL collagenase A (Roche Applied Science) was used for treatment at 37° C. for 2 hours), the cells were subjected to primary culture. The medium used was Opti-MEM I Reduced-Serum Medium, Liquid (INVITROGEN catalog No.: 31985-070) to which 8% fetal bovine serum (FBS) (BIOWEST, catalog No.: S1820-500), […] of CaCl2.2H2O (SIGMA catalog No.: C7902-500G), 0.08% of chondroitin sulfate (SIGMA catalog No.: C9819-5G), 20 μg/ml of ascorbic acid (SIGMA catalog No.: A4544-25G), 50 μg/ml of gentamicin (INVITROGEN catalog No.: 15710-064) and 5 ng/ml of EGF (INVITROGEN catalog No.: PHG0311) were added and acclimated for a 3T3 feeder cell. […] Immunostaining was applied to the cells for observation with a fluorescence microscope. […]

C[S+]([O-])c1ccc(-c2nc(-c3ccncc3)c(-c3ccc(F)cc3)[nH]2)cc1 (stereo not shown) [SB203580, 4-(4-fluorophenyl)-2-(4-methylsulfinylphenyl)-5-(4-pyridyl)-1H-imidazole]
expression of Na+/K+-ATPase and ZO-1: express Na^+/K^+-ATPase and ZO-1 and to maintain normal functions in all cells
